# Source: patent publication US20230114728A1 (Venatorx Pharmaceuticals, Inc., priority 2019, published 2023)
# Where two headings read alike, the source gives them in different places.
# Tests used:
# P. aeruginosa PBP3 = target: T1, P. aeruginosa PBP3 (Pseudomonas aeruginosa, UniProt G3XD46); assay: Bocillin-FL fluorescence polarization competition binding assay, P. aeruginosa PBP3; settings: fluorescence polarization competition binding assay using Bocillin-FL
# T1 construct: made in house
# Description: (§1) Example I: Experimental Method for Penicillin-Binding Protein Binding Assays with Bocillin-FL Via Fluorescence Polarization
# (§2) To determine the ability of boronic acid-based test PBP inhibitors to bind Penicillin Binding Proteins (PBPs), Bocillin-FL (fluorescently-labeled penicillin V; ThermoFisher Scientific) was used in a fluorescence polarization (FP) competition binding assay to assess inhibitor binding to PBP2, PBP3 or PBP4 from Escherichia coli (K12), PBP3 from Pseudomonas aeruginosa (PA01), PBP1a, PBP2 and PBP3 from Acinetobacter baumannii (ATCC 19606), and PBP2 from Neiserria gonorrheae (FA19). PBPs were cloned and purified as described previously (E. coli PBPs, King, D. T, et al., ACS Infectious Diseases 2015, 1, 175-184; P. aeruginosa PBP3, Han et. al., PNAS 2010, 107 (51), 22002-22007; A. baumannii PBPs, Penwell et. al., Antimicrob. Agents Chemother. 2015, 59 (3), 1680-1689; N. gonorrhoeae PBP2, Singh et. al., J Biol. Chem. 2019, 294 (38), 14020-14032). To establish assay conditions for competition binding, enzyme titration/saturation binding experiments were initially performed. Bocillin-FL was prepared at 0.2 μM in a buffer comprised of 50 mM Hepes (pH 8.0), 300 mM NaCl and 5% (v/v) glycerol for reactions with E. coli, P. aeruginosa and N. gonorrhoeae PBPs, and 25 mM Tris (pH 8.0), 200 mM NaCl and 10% (v/v) glycerol and 0.005% (v/v) Tween 20 for reactions with A. baumannii PBPs. Saturation binding was performed by mixing 40 μl of PBP solutions ranging in concentrations from 0-24 μM with 40 μl of the 0.2 μM Bocillin-FL solution, in individual wells of a black 384-well microplate. FP was measured immediately upon mixing (Excitation, 490 nm; Emission, 520 nm; g-factor, 0.96), using a Cytation3 (BioTek) microplate reader and measured continuously for up to 120 minutes. […] The competition binding assay (80 μl final volume) was validated using beta-lactams and PBPs at final concentrations of: 1.5 μM, E. coli PBP3; 0.75 μM, P. aeruginosa PBP3; 1 μM A. baumannii PBP1a; 2.5 μM A. baumannii PBP2; 0.2 μM A. baumannii PBP3; and […] N. gonorrhoeae PBP2. Bocillin-FL was at 0.1 μM (0.05 μM with A. baumannii PBP1a) and beta-lactam concentrations ranged from 0-1000 μM. […] Bocillin-FL was added and the FP immediately measured for up to 60 minutes (90 minutes for E. coli PBP2). […] The beta-lactam potency was reported as the concentration of beta-lactam required to reduce the amount of PBP bound-Bocillin-FL by 50% (EC50). […] Binding assays for boronic acid PBP inhibitors were performed in an identical fashion for the respective PBPs
# E. coli K12 PBP3 = target: T2, E. coli K12 PBP3 (Escherichia coli, UniProt P0AD68); assay: biochemical; type: binding
# T2 construct: made in house
# Description: as §1, §2
# E. coli AG100 = assay: Broth microdilution MIC in CAMHB; type: cell-based; settings: Escherichia coli, MHB, read-out: Minimum Inhibitory Concentration, E. coli AG100
# Method: (§3) Example III: In Vitro Antibacterial Assays
# (§4) To determine the ability of test compounds to inhibit the growth of bacterial strains, classic cell based broth microdilution minimum inhibitory concentration (MIC) assays were employed. MIC assays are performed according to CLSI methods except where otherwise noted (CLSI, 2018 and CLSI, 2019). The reference type strain E. coli ATCC 25922; the wild-type parent strain E. coli AG100; the hyper-permeable E. coli 901C and E. coli D22; and the E. coli AG100A strain lacking the acrAB efflux pump encoding genes were used to determine the ability of the PBP inhibitors to penetrate the outer membrane of gram-negative bacteria and inhibit bacterial growth. […] The P. aeruginosa ATCC 27853 and A. baumannii ATCC 19606, along with the hyper-permeable P. aeruginosa ATCC 35151 and an engineered efflux pump-compromised strain of P. aeruginosa (ΔmexAB-oprM) were used to determine the ability of PBP inhibitors to penetrate the outer membrane of P. aeruginosa and A. baumannii and assess antibacterial activity against these important gram-negative organisms.
# (§5) Briefly, cryo-preserved bacterial cultures of challenge strains are streaked for isolation on appropriate agar medium, in this case cation-adjusted Mueller Hinton agar. Following incubation to allow growth of the colonies, plates are sealed with parafilm and stored refrigerated for up to two weeks. For preparation of assay inoculum and to ensure low variability, at least 5 colonies are picked from the agar plates with an inoculating loop and aseptically transferred to a culture tube containing 3 mL of cation-adjusted Mueller Hinton broth (CAMHB). The broth culture is grown for 3-5 hours at 37° C. with shaking at 200 rpm. Meanwhile, 2-fold serial dilutions of test compounds are conducted in a 96-well plate with a final volume of 75 μL per well at 2-fold the final desired concentration. After the dilution plates are set up the growing cultures are then diluted in a cuvette containing CAMHB and the optical density is measured at 600 nm. The inoculum is diluted such that 75 μL of this culture in CAMHB results in a starting bacterial concentration of 2-8×10^5 CFU/mL when added to the dilution plates. The plates are incubated for 16-20 hours for Enterobacteriaceae and Pseudomonas and 20-24 hours for Acinetobacter at 37° C. The MIC values are read visually as the lowest concentration well with no bacterial growth.
# E. coli D22 = assay: Broth microdilution MIC in CAMHB; type: cell-based; settings: Escherichia coli, MHB, read-out: Minimum Inhibitory Concentration, E. coli D22
# Method: as §3, §4, §5
# [1] = tested on: K. pneumoniae SI-117 producing VIM-1; assay: Broth microdilution MIC in CAMHB; type: cell-based; settings: Klebsiella pneumoniae, read-out: Minimum Inhibitory Concentration, K. pneumoniae SI-117
# Method: as §3, §4, §5
# A. baumannii ATCC 19606 = assay: Broth microdilution MIC in CAMHB; type: cell-based; settings: Acinetobacter baumannii, ATCC19606; MHB; read-out: Minimum Inhibitory Concentration, A. baumannii ATCC 19606
# Method: as §3, §4, §5
# E. coli AG100A = assay: Broth microdilution MIC in CAMHB; type: cell-based; settings: Escherichia coli, read-out: Minimum Inhibitory Concentration, E. coli AG100A
# Method: as §3, §4, §5
# E. coli ATCC 25922 = assay: Broth microdilution MIC in CAMHB; type: cell-based
# Method: as §3, §4, §5
# E. coli 901C = assay: Broth microdilution MIC in CAMHB; type: cell-based; settings: Escherichia coli, MHB, read-out: Minimum Inhibitory Concentration, E. coli 901C
# Method: as §3, §4, §5
# [2] = tested on: P. aeruginosa (ΔmexAB-oprM); assay: Broth microdilution MIC in CAMHB; type: cell-based; settings: Pseudomonas aeruginosa, read-out: Minimum Inhibitory Concentration, P. aeruginosa ΔmexAB-OprM
# Method: as §3, §4, §5
# P. aeruginosa ATCC 27853 = assay: Broth microdilution MIC in CAMHB; type: cell-based; settings: Pseudomonas aeruginosa, ATCC27853; MHB; read-out: Minimum Inhibitory Concentration, P. aeruginosa ATCC 27853
# Method: as §3, §4, §5
# [3] = tested on: K. pneumoniae 848844 producing SHV-11 and KPC-2; assay: Broth microdilution MIC in CAMHB; type: cell-based; settings: Klebsiella pneumoniae, read-out: Minimum Inhibitory Concentration, K. pneumoniae 848844
# Method: as §3, §4, §5
# P. aeruginosa ATCC 35151 = assay: Broth microdilution MIC in CAMHB; type: cell-based; settings: Pseudomonas aeruginosa, ATCC35151; MHB; hyper-permeable strain; read-out: Minimum Inhibitory Concentration, P. aeruginosa ATCC 35151
# Method: as §3, §4, §5
# [4] = tested on: K. pneumoniae UMM producing SHV-5 and KPC-2; assay: Broth microdilution MIC in CAMHB; type: cell-based; settings: Klebsiella pneumoniae, read-out: Minimum Inhibitory Concentration, K. pneumoniae UMM
# Method: as §3, §4, §5
# [5] = wild-type parent strain E. coli AG100
# [6] = Escherichia coli, ATCC25922; MHB; E. coli ATCC 25922; read-out: Minimum Inhibitory Concentration, E. coli 25922
# T1 sequence (G3XD46 whole entry): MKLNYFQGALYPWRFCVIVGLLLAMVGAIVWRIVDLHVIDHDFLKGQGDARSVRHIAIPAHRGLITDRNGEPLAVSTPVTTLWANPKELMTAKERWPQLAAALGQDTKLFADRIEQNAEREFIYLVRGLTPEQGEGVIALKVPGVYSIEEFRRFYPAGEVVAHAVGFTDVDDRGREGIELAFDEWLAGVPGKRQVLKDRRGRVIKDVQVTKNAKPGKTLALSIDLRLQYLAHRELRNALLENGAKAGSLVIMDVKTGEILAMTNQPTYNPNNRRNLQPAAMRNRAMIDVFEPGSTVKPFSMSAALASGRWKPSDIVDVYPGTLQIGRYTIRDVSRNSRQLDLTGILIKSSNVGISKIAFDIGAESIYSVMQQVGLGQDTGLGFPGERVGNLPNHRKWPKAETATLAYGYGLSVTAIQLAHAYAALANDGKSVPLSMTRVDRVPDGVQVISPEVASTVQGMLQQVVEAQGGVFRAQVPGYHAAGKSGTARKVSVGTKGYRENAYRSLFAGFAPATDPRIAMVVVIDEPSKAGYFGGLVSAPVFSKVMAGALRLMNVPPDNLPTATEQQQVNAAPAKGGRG
# T2 sequence (P0AD68 1-577): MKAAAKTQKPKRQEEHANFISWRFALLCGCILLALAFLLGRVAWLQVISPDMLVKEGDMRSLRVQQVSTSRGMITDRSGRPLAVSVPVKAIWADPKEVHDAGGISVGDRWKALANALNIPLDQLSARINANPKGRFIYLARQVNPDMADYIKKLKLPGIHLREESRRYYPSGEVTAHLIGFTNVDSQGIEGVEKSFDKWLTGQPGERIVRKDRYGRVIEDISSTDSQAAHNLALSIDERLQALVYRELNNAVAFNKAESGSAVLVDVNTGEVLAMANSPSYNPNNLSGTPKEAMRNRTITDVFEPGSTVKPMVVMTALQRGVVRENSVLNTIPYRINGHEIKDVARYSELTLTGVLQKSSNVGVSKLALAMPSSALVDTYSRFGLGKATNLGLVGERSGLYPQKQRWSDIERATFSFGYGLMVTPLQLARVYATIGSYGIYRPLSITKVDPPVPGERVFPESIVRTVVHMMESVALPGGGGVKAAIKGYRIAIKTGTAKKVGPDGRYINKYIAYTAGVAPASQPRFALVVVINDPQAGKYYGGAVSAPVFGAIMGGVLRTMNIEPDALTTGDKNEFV
Structure (SMILES),P. aeruginosa PBP3 Potency (P. aeruginosa PBP3),EC50 (E. coli K12 PBP3) [µM],MIC (E. coli AG100; [5]) [µg/mL],MIC (E. coli D22; hyper-permeable E. coli D22) [µg/mL],MIC [1] [µg/mL],MIC (A. baumannii ATCC 19606) [µg/mL],MIC (E. coli AG100A) [µg/mL],MIC (E. coli ATCC 25922; [6]) [µg/mL],MIC (E. coli 901C; hyper-permeable E. coli 901C) [µg/mL],MIC [2] [µg/mL],MIC (P. aeruginosa ATCC 27853) [µg/mL],MIC [3] [µg/mL],MIC (P. aeruginosa ATCC 35151) [µg/mL],MIC [4] [µg/mL],MIC (E. coli AG100; E. coli AG100 (wild-type parent)) [µg/mL],MIC (E. coli D22; E. coli D22 (hyper-permeable)) [µg/mL],"MIC (E. coli ATCC 25922; Escherichia coli, ATCC25922; E. coli ATCC 25922; MHB; read-out: Minimum Inhibitory Concentration, E. coli 25922) [µg/mL]",MIC (E. coli 901C; E. coli 901C (hyper-permeable)) [µg/mL]
"NCCN1CCCN(C(=O)N[C@@H](C(=O)N[C@H]2Cc3cccc(C(=O)O)c3OB2O)c2c(F)cc(O)cc2F)C1=O (single isomer, unassigned) [Example 230]",C (C represents a potency between 10 and 30 μM),30 to 500,> 128,> 128,32 to 64,> 128,> 128,> 128,> 128,32 to 64,> 128,> 128,2 to 4,2 to 4,–,–,–,–
"CCN1C[C@H](C)N(C(=O)NC(C(=O)N[C@H]2Cc3cccc(C(=O)O)c3OB2O)c2c(F)cc(O)cc2F)C(=O)C1=O (stereo partly drawn) [Example 232, (3R)-3-(2-(2,6-difluoro-4-hydroxyphenyl)-2-((S)-4-ethyl-6-methyl-2,3-dioxopiperazine-1-carboxamido)acetamido)-2-hydroxy-3,4-dihydro-2H-benzo[e][1,2]oxaborinine-8-carboxylic acid]",D (D represents a potency <10 μM),< 30,32 to 64,32 to 64,2 to 4,> 128,32 to 64,8 to 16,32 to 64,8 to 16,> 128,8 to 16,2 to 4,< 0.25,–,–,–,–
"NS(=O)(=O)Nc1ccc(F)c([C@H](NC(=O)N2CCN(CC(F)(F)F)C(=O)C2=O)C(=O)N[C@H]2Cc3cccc(C(=O)O)c3OB2O)c1 (single isomer, unassigned) [Example 218]",C (C represents a potency between 10 and 30 μM),30 to 500,–,–,> 128,> 128,32 to 64,–,–,32 to 64,> 128,> 128,8 to 16,> 128,> 128,8 to 16,> 128,0.5 to 1
